Data: publication PMC8637440, “Structural Modifications Yield Novel Insights Into the Intriguing Pharmacodynamic Potential of Anti-inflammatory Nitro-Fatty Acids” (Frontiers in Pharmacology, 2021)

Tested on: sEH
Assay: Cell-based sEH activity assay in COS-7 cells
Set-up: species or system Afrikan green monkey
Settings: 10 µM, 24 h
Procedure: sEH activity in the cells was analyzed using a Soluble Epoxide Hydrolase Cell-Based Assay Kit (Cayman Chemical, #600090). […] Following incubation, the cells were processed according to the manufacturer’s instructions. The assay uses an internal signal subtraction to minimize potential errors generated by sEH-independent product formation due esterase mediated hydrolysis. The fluorescence intensity of the samples was measured in a plate reader at excitation/emission wavelengths of 330/465 nm sEH activity was calculated by the 6-methoxy-2-naphthaldehyde standard curve.
Suppl. Figure 2: Effects of NFA on sEH activity in COS-7 cells. sEH activity in COS-7 cells treated with NFA (10 µM) differ in (A) chain length and (B) Michael acceptor position and […]
Cells were lysed, and hydrolase activity was measured by Epoxy Fluor
7 lysis presented as mean + SD, n=2-3. […] OA, […]
oleic acid, she, soluble epoxide hydrolase.
(1 picture or pasted object on this page, not shown here)

CCCCCCCC/C=C\CCCCCCCC(=O)O [OA, oleic acid, reference compound]
inhibition of sEH activity in COS-7 cells: strong suppressive effect
